Reference: ChEMBL document CHEMBL3046848, “Synthesis and biological evaluation of novel series of thieno[2,3-d]pyrimidine derivatives as anticancer and antimicrobial agents” (2013)
In brackets after ≈: the same amount, converted by molar mass.

Tests used:
Format in all cases: functional
KM12 = experiment: Anticancer activity against Homo sapiens (human) KM12 cells after 48 hr by SRB assay; conditions: KM12, 48 h
SF-268 = experiment: Anticancer activity against Homo sapiens (human) SF268 cells after 48 hr by SRB assay; conditions: SF-268, 48 h
NCI-H522 = experiment: Anticancer activity against Homo sapiens (human) NCI-H522 cells after 48 hr by SRB assay; conditions: NCI-H522, 48 h
MDA-MB-468 = experiment: Anticancer activity against Homo sapiens (human) MDA-MB-468 cells after 48 hr by SRB assay; conditions: MDA-MB-468, 48 h
NCI-H226 = experiment: Growth inhibition of Homo sapiens (human) NCI-H226 cells at 10 uM after 48 hr by SRB assay; conditions: NCI-H226, 48 h, read-out: GI
NCI-H322M = experiment: Growth inhibition of Homo sapiens (human) NCI-H322M cells at 10 uM after 48 hr by SRB assay; conditions: read-out: GI
U-251 = experiment: Anticancer activity against Homo sapiens (human) U251 cells after 48 hr by SRB assay; conditions: U-251, 48 h
NCI-H460 = experiment: Anticancer activity against Homo sapiens (human) NCI-H460 cells after 48 hr by SRB assay; conditions: NCI-H460, 48 h
EKVX = experiment: Growth inhibition of Homo sapiens (human) EKVX cells at 10 uM after 48 hr by SRB assay; conditions: read-out: GI
MDA-MB-231 = experiment: Growth inhibition of Homo sapiens (human) MDA-MB-231/ATCC cells at 10 uM after 48 hr by SRB assay; conditions: MDA-MB-231, 48 h, read-out: GI
HCT-15 = experiment: Growth inhibition of Homo sapiens (human) HCT15 cells at 10 uM after 48 hr by SRB assay; conditions: HCT-15, 48 h, read-out: GI
MOLT-4 = experiment: Growth inhibition of Homo sapiens (human) MOLT4 cells at 10 uM after 48 hr by SRB assay; conditions: MOLT-4, 48 h, read-out: GI
UACC-257 = experiment: Anticancer activity against Homo sapiens (human) UACC257 cells after 48 hr by SRB assay; conditions: UACC-257, 48 h
CAKI-1 = experiment: Anticancer activity against Homo sapiens (human) CAKI-1 cells after 48 hr by SRB assay; conditions: CAKI-1, 48 h
K562 = experiment: Anticancer activity against Homo sapiens (human) K562 cells after 48 hr by SRB assay; conditions: K562, 48 h
Candida albicans [1] = experiment: Antimicrobial activity against Candida albicans ATCC2091 assessed as growth inhibition after 48 hr by two-fold serial dilution method; conditions: ATCC2091, 48 h
SK-MEL-2 = experiment: Growth inhibition of Homo sapiens (human) SK-MEL-2 cells at 10 uM after 48 hr by SRB assay; conditions: SK-MEL-2, 48 h, read-out: GI
HOP-92 = experiment: Anticancer activity against Homo sapiens (human) HOP92 cells after 48 hr by SRB assay; conditions: HOP-92, 48 h
Candida albicans [2] = experiment: Antimicrobial activity against Candida albicans ATCC2091 assessed as diameter of growth inhibition zone at 1 mg/ml after 48 hr by agar cup diffusion method; conditions: ATCC2091, 48 h, read-out: IZ
M14 = experiment: Anticancer activity against Homo sapiens (human) M14 cells after 48 hr by SRB assay; conditions: M14, 48 h
T47D = experiment: Growth inhibition of Homo sapiens (human) T47D cells at 10 uM after 48 hr by SRB assay; conditions: read-out: GI
HOP-62 [3] = experiment: Anticancer activity against Homo sapiens (human) HOP62 cells after 48 hr by SRB assay; conditions: HOP-62, 48 h
SW-620 [4] = experiment: Growth inhibition of Homo sapiens (human) SW620 cells at 10 uM after 48 hr by SRB assay; conditions: SW-620, 48 h, read-out: GI
UO-31 = experiment: Growth inhibition of Homo sapiens (human) UO31 cells at 10 uM after 48 hr by SRB assay; conditions: UO-31, 48 h, read-out: GI
HT-29 = experiment: Growth inhibition of Homo sapiens (human) HT-29 cells at 10 uM after 48 hr by SRB assay; conditions: HT-29, 48 h, read-out: GI
HOP-62 [5] = experiment: Growth inhibition of Homo sapiens (human) HOP62 cells at 10 uM after 48 hr by SRB assay; conditions: HOP-62, 48 h, read-out: GI
OVCAR-3 = experiment: Growth inhibition of Homo sapiens (human) OVCAR3 cells at 10 uM after 48 hr by SRB assay; conditions: OVCAR-3, 48 h, read-out: GI
TK-10 = experiment: Anticancer activity against Homo sapiens (human) TK10 cells after 48 hr by SRB assay; conditions: TK-10, 48 h
IGROV-1 = experiment: Growth inhibition of Homo sapiens (human) IGROV1 cells at 10 uM after 48 hr by SRB assay; conditions: IGROV-1, 48 h, read-out: GI
NCI-H23 = experiment: Anticancer activity against Homo sapiens (human) NCI-H23 cells after 48 hr by SRB assay; conditions: NCI-H23, 48 h
DU-145 = experiment: Anticancer activity against Homo sapiens (human) DU145 cells after 48 hr by SRB assay; conditions: DU-145, 48 h
SW-620 [6] = experiment: Anticancer activity against Homo sapiens (human) SW620 cells after 48 hr by SRB assay; conditions: SW-620, 48 h
Pseudomonas aeruginosa = experiment: Antimicrobial activity against Pseudomonas aeruginosa ATCC9027 assessed as diameter of growth inhibition zone at 1 mg/ml after 24 hr by agar cup diffusion method; conditions: ATCC9027, 24 h, read-out: IZ
[7] = read-out: LC50 (the source's name)

Cc1c(C(N)=O)sc2nc(C)n(/N=c3\scc(-c4ccccc4)n3Cc3ccccc3)c(=O)c12
GI50 (KM12): 3.37 µM
TGI (KM12): > 100 µM
CC50 (KM12; [7]): > 100 µM
GI50 (SF-268): 4 µM
TGI (SF-268): > 100 µM
CC50 (SF-268; [7]): > 100 µM
GI50 (NCI-H522): 1.73 µM
TGI (NCI-H522): 7.23 µM
CC50 (NCI-H522; [7]): > 100 µM
GI50 (MDA-MB-468): 2.65 µM
TGI (MDA-MB-468): > 100 µM
CC50 (MDA-MB-468; [7]): > 100 µM
inhibition of growth at 10 µM (NCI-H226): 69.1%
inhibition of growth at 10 µM (NCI-H322M): 64.6%
GI50 (U-251): 3.31 µM
TGI (U-251): > 100 µM
CC50 (U-251; [7]): > 100 µM
GI50 (NCI-H460): 2.65 µM
TGI (NCI-H460): 7.34 µM
CC50 (NCI-H460; [7]): > 100 µM
inhibition of growth at 10 µM (EKVX): 107%
inhibition of growth at 10 µM (MDA-MB-231): 57%
inhibition of growth at 10 µM (HCT-15): 85.1%
inhibition of growth at 10 µM (MOLT-4): 87.9%
GI50 (UACC-257): 3.56 µM
TGI (UACC-257): 24.3 µM
CC50 (UACC-257; [7]): > 100 µM
GI50 (CAKI-1): 3.35 µM
TGI (CAKI-1): > 100 µM
CC50 (CAKI-1; [7]): > 100 µM
GI50 (K562): 8.89 µM
TGI (K562): > 100 µM
CC50 (K562; [7]): > 100 µM
MIC (Candida albicans [1]): 125 mg/L (≈ 256 µM)
inhibition of growth at 10 µM (SK-MEL-2): 90%
GI50 (HOP-92): 1.34 µM
TGI (HOP-92): 5.33 µM
CC50 (HOP-92; [7]): > 100 µM
zone of inhibition at 1000 µg/mL (Candida albicans [2]): 17 mm
GI50 (M14): 3.88 µM
TGI (M14): 84.5 µM
CC50 (M14; [7]): > 100 µM
inhibition of growth at 10 µM (T47D): 65.3%
GI50 (HOP-62 [3]): 2.82 µM
TGI (HOP-62 [3]): 9.47 µM
CC50 (HOP-62 [3]; [7]): > 100 µM
inhibition of growth at 10 µM (SW-620 [4]): 87.5%
inhibition of growth at 10 µM (UO-31): 95.9%
inhibition of growth at 10 µM (HT-29): 20.5%
inhibition of growth at 10 µM (HOP-62 [5]): 75.8%
inhibition of growth at 10 µM (OVCAR-3): 95.7%
GI50 (TK-10): 3.78 µM
TGI (TK-10): > 100 µM
CC50 (TK-10; [7]): > 100 µM
inhibition of growth at 10 µM (IGROV-1): 89.1%
GI50 (NCI-H23): 3.12 µM
TGI (NCI-H23): > 100 µM
CC50 (NCI-H23; [7]): > 100 µM
GI50 (DU-145): 3.9 µM
TGI (DU-145): > 100 µM
CC50 (DU-145; [7]): > 100 µM
GI50 (SW-620 [6]): 3.16 µM
TGI (SW-620 [6]): > 100 µM
CC50 (SW-620 [6]; [7]): > 100 µM
zone of inhibition at 1000 µg/mL (Pseudomonas aeruginosa): 17 mm
